The record followed here is patent US11524966B1 (Valo Early Discovery, Inc., priority 2017, dated 2022).

The IC50 is the concentration needed to halve the response being measured.

Structures are written as SMILES.

The assay addresses T1, USP28 (His-tagged USP28-FL-mammalian) (Homo sapiens, UniProt Q96RU2).
T1 construct: Expression of USP28 (1-1077)-TEV-6*His (pTT5 vector); made in house; host or cells: Expi293f cells (pTT5 vector)
T1 sequence (Q96RU2 1-1077): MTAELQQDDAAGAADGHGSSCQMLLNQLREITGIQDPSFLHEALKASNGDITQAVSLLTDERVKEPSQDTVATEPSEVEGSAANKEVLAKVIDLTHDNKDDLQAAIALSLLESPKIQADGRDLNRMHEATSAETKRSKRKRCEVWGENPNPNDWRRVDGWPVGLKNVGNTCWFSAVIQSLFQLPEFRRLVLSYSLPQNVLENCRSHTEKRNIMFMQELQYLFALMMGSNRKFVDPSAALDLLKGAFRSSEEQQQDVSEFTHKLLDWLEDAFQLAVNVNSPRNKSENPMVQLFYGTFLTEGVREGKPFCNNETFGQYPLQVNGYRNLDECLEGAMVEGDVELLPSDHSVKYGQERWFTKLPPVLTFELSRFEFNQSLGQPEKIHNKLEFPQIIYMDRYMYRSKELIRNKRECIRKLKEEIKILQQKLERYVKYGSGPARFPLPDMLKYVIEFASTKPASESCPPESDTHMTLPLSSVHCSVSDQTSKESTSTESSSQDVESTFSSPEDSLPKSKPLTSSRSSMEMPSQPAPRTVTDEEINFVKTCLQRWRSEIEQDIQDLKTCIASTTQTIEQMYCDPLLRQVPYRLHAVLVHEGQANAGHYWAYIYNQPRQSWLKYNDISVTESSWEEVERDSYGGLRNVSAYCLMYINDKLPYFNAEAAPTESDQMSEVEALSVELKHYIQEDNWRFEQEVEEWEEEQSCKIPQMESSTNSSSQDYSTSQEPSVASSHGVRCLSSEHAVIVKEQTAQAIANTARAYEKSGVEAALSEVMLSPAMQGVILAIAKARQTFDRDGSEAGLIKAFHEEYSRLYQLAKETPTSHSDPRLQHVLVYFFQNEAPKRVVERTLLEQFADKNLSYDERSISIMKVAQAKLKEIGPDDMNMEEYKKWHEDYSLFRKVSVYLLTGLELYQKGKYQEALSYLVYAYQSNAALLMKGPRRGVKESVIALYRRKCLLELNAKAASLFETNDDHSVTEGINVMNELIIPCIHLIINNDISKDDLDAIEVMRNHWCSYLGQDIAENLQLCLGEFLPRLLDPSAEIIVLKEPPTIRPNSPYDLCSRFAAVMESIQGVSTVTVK
Put plainly: Ubiquitin-Rhodamine 110 Assay for USP28 Activity, Example A-1(a). Type of assay: biochemical. Conditions: Ubiquitin-Rhodamine 110 assay, Example A-1(a); read-out: USP28 A-1(a) IC50 range. The method in brief:
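Full-length His-tagged human USP28 (1-1077, Expi293f-expressed), […], with 25 nM Ub-Rh110 (<<Km) in pH 8.0 Tris buffer with BME, BGG, Triton X-100. 10-point dilutions (25 μM-1.3 nM), 45 min at room temperature, citric acid stop, fluorescence 485/535 nm; IC50 by 4-parameter fit.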
For `CO[C@]12CCN[C@@H]1CN(c1ccc3c(c1)OC[C@H](NC(=O)c1sc4nc(C)ccc4c1N)C3)C2` [Example 290, N-[(3R )-7-[(3aS,6aR)-3a-methoxy-octahydropyrrolo[2,3-c]pyrrol-5-yl]-3,4-dihydro-2H-1-benzopyran-3-yl]-3-amino-6-methylthieno[2,3-b]pyridine-2-carboxamide], the IC50 fell in the range of 0.001 to 0.05 µM. As to `Cc1ccc2c(N)c(C(=O)N[C@H]3CCc4nc(N5C[C@H](N)[C@]6(CCOC6)C5)ccc4C3)sc2n1` [Example 430, 3-amino-N-[(6S)-2-[(5S,9R)-9-amino-2-oxa-7-azaspiro[4.4]nonan-7-yl]-5,6,7,8-tetrahydroquinolin-6-yl]-6-methylthieno[2,3-b]pyridine-2-carboxamide], the IC50 fell in the range of 0.05 to 0.2 µM.

With `Cc1ccc2c(N)c(C(=O)N[C@H]3CCc4nc(N5C[C@@H](CF)[C@H](N)C5)ccc4C3)sc2n1` [Example 385, 3-amino-N-[(6S)-2-[(3S,4R)-3-amino-4-(fluoromethyl)pyrrolidin-1-yl]-5,6,7,8-tetrahydroquinolin-6-yl]-6-methylthieno[2,3-b]pyridine-2-carboxamide], the IC50 fell in the range of 0.05 to 0.2 µM. To `COC[C@@]1(N)CCN(c2ccc3c(n2)CC[C@H](NC(=O)c2sc4nc(C)ccc4c2N)C3)C1` [Example 388, 3-amino-N-[(6S)-2-[(3R)-3-amino-3-(methoxymethyl)pyrrolidin-1-yl]-5,6,7,8-tetrahydroquinolin-6-yl]-6-methylthieno[2,3-b]pyridine-2-carboxamide] belongs 0.05 to 0.2 µM. On to `CCn1ccc2cc(C(=O)N[C@H]3CCc4nc(N5C[C@H](C(F)F)[C@@H](N)C5)ccc4C3)cnc21` [Example 370, N-[(6S)-2-[(3R,4S)-3-amino-4-(difluoromethyl)pyrrolidin-1-yl]-5,6,7,8-tetrahydroquinolin-6-yl]-1-ethyl-1H-pyrrolo[2,3-b]pyridine-5-carboxamide], for which the IC50 fell in the range of 0.2 to 2 µM. To `Cc1ccc2c(N)c(C(=O)N[C@H]3CCc4nc(N5CC6(C[C@H](N)CO6)C5)ccc4C3)sc2n1` [Example 399, 3-amino-N-[(6S)-2-[(7S)-7-amino-5-oxa-2-azaspiro[3.4]octan-2-yl]-5,6,7,8-tetrahydroquinolin-6-yl]-6-methylthieno[2,3-b]pyridine-2-carboxamide] belongs 0.001 to 0.05 µM; to `CN[C@@H]1CN(c2ccc3c(n2)CC[C@H](NC(=O)c2sc4nc(C)ccc4c2N)C3)C[C@H]1COC` (single isomer, unassigned) [Example 26-2], 0.05 to 0.2 µM.

Regarding `Cc1ccc2c(N)c(C(=O)N[C@H]3CCc4nc(N5C[C@H](CF)[C@H](N)C5)ccc4C3)sc2n1` (single isomer, unassigned) [Example 27-2], the IC50 is 0.05 to 0.2 µM. To `CO[C@H]1CN(c2cc3c(cn2)C[C@@H](NC(=O)c2sc4nc(C)ccc4c2N)CO3)C[C@@H]1N` [Example 179, 3-amino-N-[(3R)-7-[(3S,4S)-3-amino-4-methoxypyrrolidin-1-yl]-2H,3H,4H-pyrano[3,2-c]pyridin-3-yl]-6-methylthieno[2,3-b]pyridine-2-carboxamide] belongs 0.001 to 0.05 µM; to `CO[C@@]1(C)CN(c2ccc3c(n2)CC[C@H](NC(=O)c2sc4nc(C)ccc4c2N)C3)C[C@H]1N` [Example 428, 3-amino-N-[(6S)-2-[(3S,4R)-4-amino-3-methoxy-3-methylpyrrolidin-1-yl]-5,6,7,8-tetrahydroquinolin-6-yl]-6-methylthieno[2,3-b]pyridine-2-carboxamide], 0.05 to 0.2 µM. To `Cc1ccc2c(N)c(C(=O)N[C@H]3CCc4nc(N5CC[C@](N)(CO)C5)ccc4C3)sc2n1` [Example 386, 3-amino-N-[(6S)-2-[(3R)-3-amino-3-(hydroxymethyl)pyrrolidin-1-yl]-5,6,7,8-tetrahydroquinolin-6-yl]-6-methylthieno[2,3-b]pyridine-2-carboxamide] belongs 0.05 to 0.2 µM; to `CCn1ccc2cc(C(=O)N[C@H]3CCc4nc(N5C[C@H](N)[C@@H](C(F)(F)F)C5)ccc4C3)cnc21` [Example 421, N-[(6S)-2-[(3R,4S)-3-amino-4-(trifluoromethyl)pyrrolidin-1-yl]-5,6,7,8-tetrahydroquinolin-6-yl]-1-ethyl-1H-pyrrolo[2,3-b]pyridine-5-carboxamide], 0.05 to 0.2 µM; to `Cc1ccc2c(N)c(C(=O)N[C@H]3CCc4nc(N5CCN[C@@H](C(F)F)C5)ccc4C3)sc2n1` [Example 375, 3-amino-N-[(6S)-2-[(3R)-3-(difluoromethyl)piperazin-1-yl]-5,6,7,8-tetrahydroquinolin-6-yl]-6-methylthieno[2,3-b]pyridine-2-carboxamide], 0.05 to 0.2 µM. As to `CO[C@@]12CCN[C@H]1CN(c1ccc3c(c1)OC[C@H](NC(=O)c1sc4nc(C)ccc4c1N)C3)C2` [Example 289, N-[(3R)-7-[(3aR,6aS)-3a-methoxy-octahydropyrrolo[2,3-c]pyrrol-5-yl]-3,4-dihydro-2H-1-benzopyran-3-yl]-3-amino-6-methylthieno[2,3-b]pyridine-2-carboxamide], the IC50 was in the range of 0.001 to 0.05 µM.

As for `CN[C@@H]1CN(c2ccc3c(n2)CC[C@H](NC(=O)c2sc4nc(C)ccc4c2N)C3)C[C@H]1C(F)F` [Example 377, 3-amino-N-[(6S)-2-[(3R,4S)-3-(difluoromethyl)-4-(methylamino)pyrrolidin-1-yl]-5,6,7,8-tetrahydroquinolin-6-yl]-6-methylthieno[2,3-b]pyridine-2-carboxamide], the IC50 is 0.05 to 0.2 µM.

In the case of `COCCO[C@@H]1CN(c2ccc3c(n2)CC[C@H](NC(=O)c2sc4nc(C)ccc4c2N)C3)C[C@H]1N` (single isomer, unassigned) [Example 28-2], the IC50 was in the range of 0.2 to 2 µM.

Regarding `Cc1ccc2c(N)c(C(=O)N[C@H]3CCc4nc(N5CC[C@]6(C5)OCC[C@H]6N)ccc4C3)sc2n1` [Example 408, 3-amino-N-[(6S)-2-[(4R,5R)-4-amino-1-oxa-7-azaspiro[4.4]nonan-7-yl]-5,6,7,8-tetrahydroquinolin-6-yl]-6-methylthieno[2,3-b]pyridine-2-carboxamide], the IC50 lay within 0.05 to 0.2 µM. As to `Cc1ccc2c(N)c(C(=O)N[C@H]3CCc4nc(N5CCN[C@H](C(F)F)C5)ccc4C3)sc2n1` [Example 374, 3-amino-N-[(6S)-2-[(3S)-3-(difluoromethyl)piperazin-1-yl]-5,6,7,8-tetrahydroquinolin-6-yl]-6-methylthieno[2,3-b]pyridine-2-carboxamide], the IC50 is 0.05 to 0.2 µM.

For the compound `CO[C@]1(C)CN(c2ccc3c(n2)CC[C@H](NC(=O)c2sc4nc(C)ccc4c2N)C3)C[C@@H]1N` [Example 427, 3-amino-N-[(6S)-2-[(3R,4S)-4-amino-3-methoxy-3-methylpyrrolidin-1-yl]-5,6,7,8-tetrahydroquinolin-6-yl]-6-methylthieno[2,3-b]pyridine-2-carboxamide], the IC50 fell in the range of 0.05 to 0.2 µM. In the case of `COCCO[C@H]1CN(c2ccc3c(n2)CC[C@H](NC(=O)c2sc4nc(C)ccc4c2N)C3)C[C@@H]1N` (single isomer, unassigned) [Example 28-1], the IC50 is 0.2 to 2 µM. Turning to `Cc1ccc2c(N)c(C(=O)N[C@H]3COc4cc(N5C[C@H](N)[C@H]6OCC[C@H]65)ccc4C3)sc2n1` [Example 426, N-[(3R)-7-[(3aR,6S,6aR)-6-amino-hexahydro-2H-furo[3,2-b]pyrrol-4-yl]-3,4-dihydro-2H-1-benzopyran-3-yl]-3-amino-6-methylthieno[2,3-b]pyridine-2-carboxamide], the IC50 lay in the range of 0.001 to 0.05 µM. To `CCO[C@H]1CN(c2cc3c(cn2)C[C@@H](NC(=O)c2sc4nc(C)ccc4c2N)CO3)C[C@@H]1N` [Example 180, 3-amino-N-[(3R)-7-[(3S,4S)-3-amino-4-ethoxypyrrolidin-1-yl]-2H,3H,4H-pyrano[3,2-c]pyridin-3-yl]-6-methylthieno[2,3-b]pyridine-2-carboxamide] belongs 0.001 to 0.05 µM; to `Cc1ccc2c(N)c(C(=O)N[C@H]3COc4nc(N5C[C@H](C(F)F)[C@@H](N)C5)ccc4C3)sc2n1` [Example 378, 3-amino-N-[(3R)-7-[(3R,4S)-3-amino-4-(difluoromethyl)pyrrolidin-1-yl]-2H,3H,4H-pyrano[2,3-b]pyridin-3-yl]-6-methylthieno[2,3-b]pyridine-2-carboxamide], 0.05 to 0.2 µM.
